Results from ChEMBL document CHEMBL1145280, “Control of hepatitis C: a medicinal chemistry perspective” (J Med Chem, 2005).
Non-standard residues stand in square brackets, D forms with d. Residues, ends and D or L forms follow the SMILES beside them. *: point of attachment. Dip = N[C@H](C(=O)O)C(c1ccccc1)c1ccccc1; Hyp = O=C(O)[C@@H]1C[C@@H](O)CN1; Tic = O=C(O)[C@@H]1Cc2ccccc2CN1; X1 = O=C(O)C(=O)[C@H](CC(F)F)N*; Cha = N[C@@H](CC1CCCCC1)C(=O)O; Nle = CCCC[C@H](N)C(=O)O; Ahx = NCCCCCC(=O)O; Bn = c1ccc(C*)cc1

target: T1, NS3 (Hepatitis C virus, UniProt A3EZJ3); assay: Inhibitory constant against hepatitis C virus NS3 protease; set-up: species or system Hepacivirus hominis; conditions: not given
T1 sequence (A3EZJ3 whole entry): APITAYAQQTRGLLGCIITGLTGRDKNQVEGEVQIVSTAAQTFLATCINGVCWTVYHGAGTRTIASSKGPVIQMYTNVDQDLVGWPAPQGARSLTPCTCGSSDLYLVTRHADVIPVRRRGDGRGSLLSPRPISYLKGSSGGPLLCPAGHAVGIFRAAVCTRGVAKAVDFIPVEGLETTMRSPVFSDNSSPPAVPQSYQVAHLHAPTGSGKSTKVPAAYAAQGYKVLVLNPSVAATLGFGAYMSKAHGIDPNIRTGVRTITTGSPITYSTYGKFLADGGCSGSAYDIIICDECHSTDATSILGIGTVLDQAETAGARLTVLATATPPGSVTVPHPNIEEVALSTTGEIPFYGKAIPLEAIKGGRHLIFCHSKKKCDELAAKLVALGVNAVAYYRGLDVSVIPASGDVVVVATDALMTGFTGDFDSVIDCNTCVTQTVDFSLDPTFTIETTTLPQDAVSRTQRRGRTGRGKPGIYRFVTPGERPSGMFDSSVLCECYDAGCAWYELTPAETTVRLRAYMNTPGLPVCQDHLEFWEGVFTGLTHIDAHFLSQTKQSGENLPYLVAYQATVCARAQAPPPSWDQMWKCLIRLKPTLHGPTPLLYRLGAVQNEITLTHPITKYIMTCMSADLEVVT

| Compound | Ki [nM] |
| --- | --- |
| CC(=O)N[C@@H](CC(=O)O)C(=O)N[C@@H](CCC(=O)O)C(=O)N[C@H](C(=O)N[C@@H](CCC(=O)O)C(=O)N[C@@H](CC1CCCCC1)C(=O)N[C@@H](CC(F)F)C(=O)C(=O)O)C(c1ccccc1)c1ccccc1 (Ac-DE[Dip]E[Cha]-X1) | 10 |
| Ac-DEMEEC-OH | 600 |
| O=C(O)[C@H](Cc1ccccc1)N(Cc1cccc(C(F)(F)F)c1)C(=O)c1ccc(Cl)cc1Cl | 2200 |
| O=C(O)[C@H](Cc1ccccc1)N(Cc1ccc(-c2cc3ccccc3o2)s1)C(=O)c1ccc(Cl)cc1Cl | 2200 |
| CC(C)COC(=O)N[C@@H](CCC(=O)O)C(=O)N[C@@H](CC(C)C)C(=O)N[C@@H](CC(F)F)C(=O)NCCc1ccc(C(=O)O)cc1Cl | 600 |
| CC(=O)N[C@@H](CC(=O)O)C(=O)N[C@@H](CCC(=O)O)C(=O)N[C@H](C(=O)N[C@@H](CCC(=O)O)C(=O)N[C@@H](CC1CCCCC1)C(=O)N[C@@H](CS)C(=O)O)C(c1ccccc1)c1ccccc1 (Ac-DE[Dip]E[Cha]C-OH) | 40 |

target: T1, NS3; assay: Inhibitory concentration against hepatitis C virus helicase; set-up: species or system Hepacivirus hominis; conditions: not given

| Compound | IC50 [nM] |
| --- | --- |
| COC(=O)[C@@H]1c2cc3c(c(O)c2[C@@H](O[C@@H]2O[C@@H](C)[C@H](OC)[C@@](C)(OC)[C@H]2OC)C[C@]1(C)O)C(=O)c1c(O)cc2c(c1C3=O)O[C@@H]1O[C@@]2(C)[C@H](O)[C@@H](N(C)C)[C@@H]1O [NOGALAMYCIN] | 100 |
| Brc1c(Br)c(Br)c2[nH]nnc2c1Br [TETRABROMOBENZOTRIAZOLE] | 20000 |
| NC(=O)c1ncn([C@@H]2O[C@H](COP(=O)(O)OP(=O)(O)O)[C@@H](O)[C@H]2O)n1 | 250000 |
| COc1cccc2c1C(=O)c1c(O)c3c(c(O)c1C2=O)C[C@@](O)(C(=O)CO)C[C@@H]3O[C@H]1C[C@H](N)[C@@H](O)[C@H](C)O1 [EPIRUBICIN] | 750 |
| Nc1nc(=O)c2c(ncn2C2O[C@H](CO)C(O)C2O)c(=O)[nH]1 (single isomer, unassigned) | 12000 |
| O=C(CCCCC(=O)Nc1ccc(-c2nc3ccccc3[nH]2)cc1)Nc1ccc(-c2nc3ccccc3[nH]2)cc1 | 700 |
| O=C1NNC(=O)c2c(ncn2[C@H]2O[C@@H](COP(=O)(O)OP(=O)(O)OP(=O)(O)O)[C@H](O)[C@@H]2O)N1 | 1500 |
| N=c1nc(N)c2ncn([C@H]3O[C@@H](COP(=O)(O)OP(=O)(O)OP(=O)(O)O)[C@H](O)[C@@H]3O)c2c(N)n1 | 550 |
| NC(=O)c1ncn([C@@H]2O[C@H](CO[P@@](=O)(O)O[P@](=O)(O)OP(=O)(O)O)[C@@H](O)[C@H]2O)n1 [RTP] | 180000 |
| Nc1nc(=O)c2c(ncn2COCCOCc2ccccc2)c(=O)[nH]1 | 5500 |
| c1cc(CN2CCC(C3=NC4CCCCC4N3)CC2)ccc1CN1CCC(C2=NC3CCCCC3N2)CC1 (stereo not drawn) | 7000 |
| CC(=O)O[C@H]1C(=O)[C@@]2(C)[C@H]([C@H](OC(=O)c3ccccc3)[C@]3(O)C[C@H](OC(=O)[C@H](O)[C@@H](NC(=O)c4ccccc4)c4ccccc4)C(C)=C1C3(C)C)[C@]1(OC(C)=O)CO[C@@H]1C[C@@H]2O [PACLITAXEL] | > 1000 |
| OC[C@H]1O[C@@H](n2nnc3cc(Cl)c(Cl)cc32)[C@H](O)[C@@H]1O | 1500 |

target: T1, NS3; assay: Inhibitory concentration against hepatitis C virus NS3 protease; set-up: species or system Hepacivirus hominis; conditions: not given

| Compound | IC50 [µg/mL] |
| --- | --- |
| CC(=O)OCCC/C(=C1/SC(=S)N(CC(=O)O)C1=O)c1ccc(Br)cc1 | 6.4 |

same assay, conditions: read-out: IC50

| Compound | IC50 [nM] |
| --- | --- |
| CCCC(=O)c1cc2c(c(O)c1C)C(=O)C(=O)c1c(O)cccc1-2 | 7000 |
| C=C[C@H]1C[C@]1(NC(=O)[C@@H]1C[C@@H](Oc2cc(-c3ccccc3)nc3ccccc23)CN1C(=O)[C@@H](NC(=O)[C@@H](NC(C)=O)C1CCCCC1)C(C)C)C(=O)O | 13 |
| CC(=O)N[C@@H](CC(=O)O)C(=O)N[C@@H](CCC(=O)O)C(=O)N[C@@H](CC1CCCCC1)C(=O)N[C@H](C(=O)N1C[C@@H](OCc2ccccc2)C[C@H]1C(=O)NC1(C(=O)O)CC1)C(C)C | 51 |
| CC(=O)N[C@@H](CC(=O)O)C(=O)N[C@@H](CCC(=O)O)C(=O)N[C@@H](CC1CCCCC1)C(=O)N[C@H](C(=O)N1C[C@H](OCc2ccccc2)C[C@H]1C(=O)N[C@@H](CS)C(=O)O)C(C)C (Ac-DE[Cha]V[Hyp](Bn)C-OH) | 33 |
| CCCCCCCCCCCCCNC(=O)c1c(O)cc(O)c([N+](=O)[O-])c1O | 5800 |
| CC(=O)OC1OCC=C2OC(=O)C=C21 (stereo not drawn) | 7200 |
| CCCC[C@H](NC(=O)[C@@H]1Cc2ccccc2CN1C(=O)[C@H](CS)NC(=O)[C@H](CC1CCCCC1)NC(=O)[C@@H](NC(=O)[C@@H](NC(=O)[C@H](CCC(=O)O)NC(=O)[C@H](CC(=O)O)NC(C)=O)C(c1ccccc1)c1ccccc1)[C@@H](C)CC)C(=O)N[C@@H](CO)C(=O)N[C@@H](Cc1ccc(O)cc1)C(N)=O (Ac-DE[Dip]I[Cha]C[Tic][Nle]SY-NH2) | 100 |
| CC(C)C[C@H](NC(=O)[C@H](CC(=O)O)NC(=O)[C@H](CC1CCCCC1)NC(=O)[C@@H]1CCCC[C@H]1C(=O)O)C(N)=O | 15000 |
| O=C(Nc1cc(Cl)ccc1Oc1ccc2ccccc2c1Cl)c1cc(Cl)cc(Br)c1O | 6200 |
| Ac-DDIVPC-OH | 71000 |
| CC[C@H](C)[C@H](NC(=O)OCc1ccccc1)C(=O)N[C@@H](CC(C)C)C(=O)N[C@@H](CC(F)F)C(=O)C(=O)O | 1700 |
| O=C(Nc1ccc(Oc2ccc(Cl)c3ccccc23)c(Cl)c1)c1cc(Cl)ccc1NS(=O)(=O)c1ccc(Cl)cc1 | 6500 |
| CC[C@H](C)[C@H](NC(=O)OC(C)(C)C)C(=O)N[C@@H](CC(C)C)C(=O)N[C@@H](CC(F)F)C(=O)C(=O)O | 1000 |
| CC[C@H](C)[C@H](NC(=O)[C@@H](NC(=O)[C@H](CCC(=O)O)NC(=O)[C@H](CC(=O)O)NC(C)=O)C(c1ccccc1)c1ccccc1)C(=O)N[C@@H](CC1CCCCC1)C(=O)N[C@@H](CS)C(=O)N1CCC[C@H]1C(=O)N[C@@H](CC1CCCCC1)C(=O)N[C@@H](CC(=O)O)C(=O)N[C@H](C(N)=O)C(C)C (Ac-DE[Dip]I[Cha]CP[Cha]DV-NH2) | 1300 |
| CCCC[C@H](NC(=O)[C@@H]1CCCN1C(=O)[C@H](CS)NC(=O)[C@H](CC1CCCCC1)NC(=O)[C@@H](NC(=O)[C@@H](NC(=O)[C@H](CCC(=O)O)NC(=O)[C@H](CC(=O)O)NC(C)=O)C(c1ccccc1)c1ccccc1)[C@@H](C)CC)C(=O)N[C@@H](CC(=O)O)C(=O)N[C@H](C(N)=O)C(C)C (Ac-DE[Dip]I[Cha]CP[Nle]DV-NH2) | 1800 |
| CCCC[C@H](NC(=O)[C@@H]1Cc2ccccc2CN1C(=O)[C@H](CS)NC(=O)[C@H](CC(C)C)NC(=O)[C@@H](NC(=O)[C@@H](NC(=O)[C@H](CCC(=O)O)NC(=O)[C@H](CCC(=O)O)NC(C)=O)C(C)C)C(C)C)C(=O)N[C@@H](CO)C(=O)N[C@@H](Cc1ccc(O)cc1)C(N)=O (Ac-EEVVLC[Tic][Nle]SY-NH2) | 1000 |
| COc1ccc2c(O[C@@H]3C[C@H]4C(=O)N[C@]5(C(=O)O)C[C@H]5/C=C\CCCCC[C@H](NC(=O)OC5CCCC5)C(=O)N4C3)cc(-c3csc(NC(C)C)n3)nc2c1 [CILUPREVIR] | 3000 |
| O=C1C=C2C(=CCOC2O)O1 (stereo not drawn) [PATULIN] | 3800 |
| O=C1NC(=S)S/C1=C/c1cc([N+](=O)[O-])ccc1Sc1ccc(Cl)cc1 | 3200 |
| O=C1C=C2C(=CCOC2OC(=O)c2cccc(Br)c2)O1 (stereo not drawn) | 12600 |

target: T1, NS3; assay: Inhibitory concentration against hepatitis C virus NS4A binding region of NS3 protease; set-up: species or system Hepacivirus hominis; conditions: not given

| Compound | IC50 [nM] |
| --- | --- |
| CC[C@H](C)[C@H](NC(=O)CNC(=O)[C@H](CCCN=C(N)N)NC(=O)[C@@H](NC(=O)[C@@H](NC(=O)[C@H](CC(C)C)NC(=O)[C@H](CO)NC(=O)CNC(=O)[C@H](CCCCN)NC(=O)CCCCCNC(=O)[C@H](CS)NC(=O)[C@H](CS)NC(=O)[C@@H](NC(=O)[C@@H](NC(=O)[C@H](CCC(=O)O)NC(=O)[C@@H](N)CC(=O)O)C(C)C)C(C)C)C(C)C)[C@@H](C)CC)C(=O)N[C@H](C(=O)N[C@H](C(=O)N[C@@H](CS)C(=O)N[C@@H](CCCCN)C(=O)O)C(C)C)C(C)C (H-DEVVCC[Ahx]KGSLVIRGIVVCK-OH) | 200 |
| CC[C@H](C)[C@H](NC(=O)[C@H](CCCNC(=N)N)NC(=O)CNC(=O)[C@@H](NC(=O)[C@@H](NC(=O)[C@@H](NC(=O)[C@@H](NC(=O)[C@H](CS)NC(=O)CCCCCNC(=O)CCCCCNC(=O)[C@H](CS)NC(=O)[C@H](CS)NC(=O)[C@@H](NC(=O)[C@@H](NC(=O)[C@H](CC(=O)O)NC(=O)[C@@H](N)CCC(=O)O)C(C)C)C(C)C)C(C)C)C(C)C)[C@@H](C)CC)C(C)C)C(=O)N[C@H](C(=O)N[C@@H](CC(C)C)C(=O)N[C@@H](CO)C(=O)NCC(=O)N[C@@H](CCCCN)C(=O)O)C(C)C (H-EDVVCC[Ahx][Ahx]CVVIVGRIVLSGK-OH) | 600 |

target: Genome polyprotein (Hepatitis C virus genotype 1a (isolate 1) (HCV), UniProt P26664); assay: Inhibitory concentration against hepatitis C virus polymerase; set-up: species or system Hepacivirus hominis; conditions: not given
Sequence (P26664 2421-3011 limits assumed): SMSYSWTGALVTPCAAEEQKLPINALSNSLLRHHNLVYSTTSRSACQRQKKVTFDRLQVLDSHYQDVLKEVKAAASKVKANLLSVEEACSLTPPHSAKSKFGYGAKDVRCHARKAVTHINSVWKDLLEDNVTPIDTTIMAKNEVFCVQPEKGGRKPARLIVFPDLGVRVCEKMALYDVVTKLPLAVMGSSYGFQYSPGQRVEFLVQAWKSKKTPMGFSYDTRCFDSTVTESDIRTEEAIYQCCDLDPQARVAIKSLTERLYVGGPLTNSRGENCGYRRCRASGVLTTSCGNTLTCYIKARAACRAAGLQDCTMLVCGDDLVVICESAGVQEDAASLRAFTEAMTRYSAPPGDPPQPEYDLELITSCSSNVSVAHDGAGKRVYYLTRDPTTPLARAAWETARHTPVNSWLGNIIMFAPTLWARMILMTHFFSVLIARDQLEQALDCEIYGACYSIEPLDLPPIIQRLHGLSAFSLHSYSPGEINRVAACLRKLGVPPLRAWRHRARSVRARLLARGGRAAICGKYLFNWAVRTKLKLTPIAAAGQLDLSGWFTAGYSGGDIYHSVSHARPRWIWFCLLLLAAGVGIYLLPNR

| Compound | IC50 [nM] |
| --- | --- |
| O=C(O)c1ccc2c(c1)nc(-c1ccc(OCc3cc(C(=O)N4CCC(O)CC4)ccc3-c3ccc(Cl)cc3)cc1F)n2C1CCCCC1 | < 10000 |
| O=C(N[C@@H](Cc1c[nH]c2ccccc12)C(=O)O)c1ccc2c(c1)nc(-c1ccoc1)n2C1CCCCC1 | < 1000 |
| N#Cc1ccc(Br)cc1-c1cccc(C(=O)CC(=O)C(=O)O)c1 | 100 |
| O=C(NCc1ccccc1Cl)Nc1ccsc1-c1nc(O)c(O)c(C(=O)O)n1 | 100 |
| N#Cc1c(Cl)cc(Cl)cc1-c1cccc(C(=O)CC(=O)C(=O)O)c1 | 45 |
| N#Cc1c(Cl)cccc1-c1cccc(C(=O)CC(=O)C(=O)O)c1 | 110 |
| COc1ccc(CCNC(=O)c2ccc3c(c2)nc(-c2ccccn2)n3C2CCCCC2)cc1OC | 12000 |
| O=C(O)C(=O)CC(=O)c1ccccc1 | 5700 |
| CC(C)CCn1c(=O)c(C2=NS(=O)(=O)c3ccccc3N2)c(O)c2ccccc21 | 800 |
| O=C(O)c1ccc2c(c1)nc(-c1ccccn1)n2C1CCCCC1 | 4300 |
| N#Cc1ccc(Br)cc1Oc1ccccc1C(=O)CC(=O)C(=O)O | 350 |

system: Internal ribosome entry site (IRES); assay: Inhibitory concentration against hepatitis C virus internal ribosomal entry site; type: nucleic-acid assay, Hepacivirus hominis; conditions: not given

| Compound | IC50 [nM] |
| --- | --- |
| Nc1ccc2nc3ccc(N)cc3[s+]c2c1 [THIONIN ACETATE] | 2860 |
| Cc1cc2nc3ccc(N(C)C)cc3nc2cc1N | 20 |
| Nc1ccc(Nc2ccc(N)cc2)cc1 | > 10000 |
| CN(C)c1ccc2c(c1)Sc1cc(N(C)C)ccc1N2C(=O)c1ccccc1 | > 10000 |
| Nc1ccc2c(c1)NC(=O)c1cc(N)cnc1O2 | > 10000 |
| Nc1ccc2c(c1)Oc1ncc(N)cc1C(=O)N2 | > 10000 |
| CCN(CC)c1ccc2[o+]c3cc(C)c(N)cc3nc2c1 | 1000 |
| Nc1ccc2[nH]c3ccc(N)cc3c2c1 | > 10000 |
| CN(C)c1ccc(C(=O)c2ccc(N(C)C)cc2)cc1 [MICHLER'S KETONE] | > 10000 |
| CN(C)c1ccc(Nc2ccc(N(C)C)cc2)cc1 | 2190 |
